Source: patent US8658668B2, “PI3 kinase/mTOR dual inhibitor” (Eli Lilly and Company, priority 2011, dated 2014)

Experiments:
PI3Kb = PI3Kb (Homo sapiens, UniProt P42338); assay: PI3K beta Scintillation Proximity Assay; assay type: biochemical; conditions: 40 μM ATP; n=2; read-out: absolute IC50
Procedure: Use the PI3K beta Scintillation Proximity Assay (PI3K beta SPA) to determine the IC50 value against PI3Kb for a compound. This assay assesses the activity PI3K beta in the presence of compound inhibitors by measuring incorporation of γ-P33-ATP into phosphatidylinositol (4,5)bisphosphate (PIP2). Perform the kinase reactions in 40 μL reaction volumes in 96-well half-area flat bottom white with clear bottom polystyrene plates. Add PI3K beta to start the reaction. Final reaction conditions are 43.75 mM 2,2-bis(hydroxymethyl)-2,2′,2″-nitrilotriethanol (Bis-Tris) pH 7.0, 87.5 mM sodium chloride (NaCl), 1.76 mM polyethylene glycol octylphenyl ether (Triton™ X-100), 40 μM adenosine triphosphate (ATP), 1.0 mM magnesium chloride (MgCl2) and 1 μCi per well γ-P33-adenosine triphosphate (γ-P33-ATP), 6.0 nM PI3K beta human recombinant enzyme, 0.2 mM palmitoyl-oleoyl phosphatidylserine (POPS), 0.04 mM phosphatidylinositol (4,5)bisphosphate (PIP2), 4% DMSO and serial dilutions of compound (diluted 1:3 from 20,000 to 1 nM). […] Centrifuge plates for 30 min at 1000 revolutions per minute (RPM) and count radioactivity with a Wallac Microbeta Trilux normalized for P33. Derive the IC50 value for the compound by using percent inhibition data calculated using the reaction data relative to on-plate controls (active enzyme versus 62.5 millimolar EDTA-inhibited enzyme controls). […]

P70S6(pT389) = assay: AlphaScreen SureFire p-p70S6 kinase (Thr389) in U87MG cells; assay type: cell-based; conditions: Homo sapiens, U-87 MG, 1 h, n = 4, read-out: P70S6(pT389) Absolute IC50
Procedure: This homogeneous assay format uses immuno-sandwich capture of the phosphorylated analyte and then detection with antibody-coated Alphascreen beads to generate an amplified signal.
Maintain U87MG cells in U87MG growth medium consisting of DMEM (GIBCO 11965-092) supplemented with 10% fetal bovine serum (FBS, GIBCO, 10091-141), 1% nonessential amino acids (GIBCO, 11140-050) and 1% sodium pyruvate (GIBCO, 11360-070). Harvest cells using standard cell culture procedures and then count using Vi-Cell. Plate 100 μL of U87MG cells in growth medium (50,000 cells/well) into Costar #3596 96 well plates and incubate overnight at 37° C., 5% CO2.
Incubate for one h at 37° C., then remove the medium and add 50 μL of 1× SureFire Lysis Buffer (TGR Biosciences SureFire® Kit component) to each well and incubate at room temperature for 10 min with gentle shaking Transfer 6 μL lysate and 10 μL reaction mixture (60 parts reaction buffer/10 parts activation buffer/1 part each of donor and acceptor beads, Perkin Elmer, 6760617R) to a 384 well proxiplate (Perkin Elmer, 6006280) for the p-p70S6 kinase (Thr389) and p-AKT(Ser473) assays. Seal the plate and incubate at RT for 4 h. […] Read the plates on a Perkin Elmer EnVision equipped with a TurboModule using standard AlphaScreen® settings (Ex680 nm and Em520-620 nm). […]

[1] = test system: BXF 1228 human tumor xenograft cells; assay: Oncotest tumor clonogenic assay, BXF 1228; assay type: cell-based; conditions: colony formation, Bladder BXF 1228, transitional cell carcinoma, wd, read-out: Absolute IC50
[2] = test system: CXF 243 human tumor xenograft cells; assay: Oncotest tumor clonogenic assay, CXF 243; assay type: cell-based; conditions: colony formation, Colon CXF 243, adeno carcinoma, pd, read-out: Absolute IC50
[3] = test system: CXF 975 human tumor xenograft cells; assay: Oncotest tumor clonogenic assay, CXF 975; assay type: cell-based; conditions: colony formation, Colon CXF 975, adeno carcinoma, md, read-out: Absolute IC50
[4] = test system: LXFE 211 human tumor xenograft cells; assay: Oncotest tumor clonogenic assay, LXFE 211; assay type: cell-based; conditions: colony formation, NSCLC LXFE 211, squamous cell carcinoma, ud, read-out: Absolute IC50
[5] = test system: MAXF 1384 human tumor xenograft cells; assay: Oncotest tumor clonogenic assay, MAXF 1384; assay type: cell-based; conditions: colony formation, Mammary MAXF 1384, adeno carcinoma, pd, read-out: Absolute IC50
[6] = test system: MEXF 276 human tumor xenograft cells; assay: Oncotest tumor clonogenic assay, MEXF 276; assay type: cell-based; conditions: colony formation, Melanoma MEXF 276, amelanotic melanoma, md, read-out: Absolute IC50
[7] = test system: MEXF 989 human tumor xenograft cells; assay: Oncotest tumor clonogenic assay, MEXF 989; assay type: cell-based; conditions: colony formation, Melanoma MEXF 989, amelanotic melanoma, md, read-out: Absolute IC50
[8] = test system: OVXF 1353 human tumor xenograft cells; assay: Oncotest tumor clonogenic assay, OVXF 1353; assay type: cell-based; conditions: colony formation, Ovary OVXF 1353, adeno carcinoma, pd, read-out: Absolute IC50
[9] = test system: PRXF DU145 human tumor xenograft cells; assay: Oncotest tumor clonogenic assay, PRXF DU145; assay type: cell-based; conditions: DU-145, colony formation, Prostate PRXF DU145, adeno carcinoma, ud, read-out: Absolute IC50
[10] = test system: SXF 1186 human tumor xenograft cells; assay: Oncotest tumor clonogenic assay, SXF 1186; assay type: cell-based; conditions: colony formation, Sarcoma SXF 1186, osteoblastic osteosarcoma, md, read-out: Absolute IC50
[11] = test system: SXF 627 human tumor xenograft cells; assay: Oncotest tumor clonogenic assay, SXF 627; assay type: cell-based; conditions: colony formation, Sarcoma SXF 627, pleomorphic rhabdomyosarcoma, pd, read-out: Absolute IC50
[12] = test system: human glioblastoma cells U87MG; assay: Xenograft tumor model, U87MG; assay type: in vivo, mouse; conditions: oral gavage
Procedure: Expand human glioblastoma cells U87MG and human renal carcinoma cells 786-O, in culture, harvest and inject subcutaneously onto the rear flank of athymic nude mice. Expand human non-small cell lung cancer cells NCI-H1975 in culture, harvest and inject subcutaneously onto the rear flank of CD-1 nu/nu mice. Prepare test compound in an appropriate vehicle and administer by oral gavage when tumors are established (7-21 days after implant). Tumor response is determined by tumor volume measurement performed twice a week during the course of treatment. Body weight is taken as a general measurement of toxicity.

Chain of PI3Kb (P42338 whole entry): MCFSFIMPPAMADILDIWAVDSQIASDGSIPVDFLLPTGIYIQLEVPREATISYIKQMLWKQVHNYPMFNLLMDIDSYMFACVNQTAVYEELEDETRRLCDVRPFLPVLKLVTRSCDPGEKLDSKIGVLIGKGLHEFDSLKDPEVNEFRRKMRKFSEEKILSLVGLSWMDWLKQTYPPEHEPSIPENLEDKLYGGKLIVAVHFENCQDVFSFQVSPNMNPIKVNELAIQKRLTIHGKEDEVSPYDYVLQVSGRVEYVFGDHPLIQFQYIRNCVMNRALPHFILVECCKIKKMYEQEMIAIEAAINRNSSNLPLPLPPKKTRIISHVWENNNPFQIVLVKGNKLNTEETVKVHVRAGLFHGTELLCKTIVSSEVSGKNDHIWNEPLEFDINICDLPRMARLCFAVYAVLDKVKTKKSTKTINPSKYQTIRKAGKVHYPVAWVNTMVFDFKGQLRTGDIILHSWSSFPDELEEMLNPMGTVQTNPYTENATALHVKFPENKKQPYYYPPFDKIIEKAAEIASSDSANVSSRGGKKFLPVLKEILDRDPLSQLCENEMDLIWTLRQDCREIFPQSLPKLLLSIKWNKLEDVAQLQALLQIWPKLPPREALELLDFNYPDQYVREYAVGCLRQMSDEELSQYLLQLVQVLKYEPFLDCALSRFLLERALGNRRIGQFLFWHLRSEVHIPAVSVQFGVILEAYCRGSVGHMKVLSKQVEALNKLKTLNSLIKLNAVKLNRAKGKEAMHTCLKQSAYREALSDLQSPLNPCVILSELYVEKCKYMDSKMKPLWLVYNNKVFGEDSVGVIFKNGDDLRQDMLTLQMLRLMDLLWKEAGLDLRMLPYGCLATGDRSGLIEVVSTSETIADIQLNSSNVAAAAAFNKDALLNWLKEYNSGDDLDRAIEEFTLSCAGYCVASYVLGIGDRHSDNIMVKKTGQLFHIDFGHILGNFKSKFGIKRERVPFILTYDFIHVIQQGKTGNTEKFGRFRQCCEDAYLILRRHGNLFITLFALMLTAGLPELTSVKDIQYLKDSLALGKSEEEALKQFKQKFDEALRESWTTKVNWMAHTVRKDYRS
Chain of PI3Kb (P27986 whole entry partner): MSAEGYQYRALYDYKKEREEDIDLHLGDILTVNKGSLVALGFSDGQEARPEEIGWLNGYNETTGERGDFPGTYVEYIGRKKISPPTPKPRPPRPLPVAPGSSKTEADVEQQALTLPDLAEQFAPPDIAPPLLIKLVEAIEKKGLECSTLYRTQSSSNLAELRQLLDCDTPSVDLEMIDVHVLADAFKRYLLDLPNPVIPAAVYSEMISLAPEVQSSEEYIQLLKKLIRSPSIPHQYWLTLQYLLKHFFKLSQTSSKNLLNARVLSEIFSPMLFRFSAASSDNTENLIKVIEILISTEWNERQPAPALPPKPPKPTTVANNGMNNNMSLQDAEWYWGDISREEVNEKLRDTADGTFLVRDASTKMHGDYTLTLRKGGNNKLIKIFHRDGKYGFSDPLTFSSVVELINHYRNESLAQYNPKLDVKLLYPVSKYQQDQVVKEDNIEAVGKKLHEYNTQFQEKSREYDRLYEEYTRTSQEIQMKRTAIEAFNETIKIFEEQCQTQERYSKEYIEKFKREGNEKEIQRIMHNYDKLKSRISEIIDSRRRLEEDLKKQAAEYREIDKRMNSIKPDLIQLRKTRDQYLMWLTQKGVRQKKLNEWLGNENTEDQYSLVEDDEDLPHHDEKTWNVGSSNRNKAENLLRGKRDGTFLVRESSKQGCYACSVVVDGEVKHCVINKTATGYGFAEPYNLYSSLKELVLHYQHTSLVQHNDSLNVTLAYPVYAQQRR

IC50 (PI3Kb): 77.6 nM
IC50 (P70S6(pT389)): 10.6 nM
IC50 [1]: 31 nM
IC50 [2]: 237 nM
IC50 [3]: 142 nM
IC50 [4]: 108 nM
IC50 [5]: 243 nM
IC50 [6]: 157 nM
IC50 [7]: 185 nM
IC50 [8]: > 200 nM
IC50 [9]: 269 nM
IC50 [10]: 110 nM
IC50 [11]: 95 nM
SMILES: CO[C@@H](C)Cn1c(=O)n(C)c2cnc3ccc(-c4cncc(C(C)(C)O)c4)cc3c21 [Example 1, 8-[5-(1-Hydroxy-1-methylethyl)pyridin-3-yl]-1-[(2S)-2-methoxypropyl]-3-methyl-1,3-dihydro-2H-imidazo[4,5-c]quinolin-2-one]
% TGI ([12]; 3 mg/kg BID): 38.6%
% TGI ([12]; 6 mg/kg BID): 57.7%
% TGI ([12]; 10 mg/kg BID): 86.1%
% TGI ([12]; 12 mg/kg QD): 53.4%
